Data set [1] can be described thus: Lipophilicity and solubility observed on handling (data not shown). It is filed as physicochemical. From the text:
SIB-1757 (48) (Sigma Aldrich) is a moderate-affinity non-competitive antagonist of mGlu5 [J. Pharmacol. Exp. Thr., 1999, 290, 170-181]. […] However, we tested the molecule on a cell line heterogously expressing mGlu5, to ensure that the biological effect of SIB-1757 (48) on the target receptor is not light dependent. […] Moreover, we observed a high lipophilicity of the molecule, and also a low solubility, which make SIB-1757 (48) quite uneasy to handle for biological applications (not shown).

Data set [2] deals with T1, rat metabotropic glutamate receptor 5 (mGlu5) (Rattus norvegicus, UniProt P31424).
T1 construct: expressed in transfected cells; host or cells: HEK tsA201 cells
T1 sequence (P31424 21-1171 isoform P31424-2 limits assumed): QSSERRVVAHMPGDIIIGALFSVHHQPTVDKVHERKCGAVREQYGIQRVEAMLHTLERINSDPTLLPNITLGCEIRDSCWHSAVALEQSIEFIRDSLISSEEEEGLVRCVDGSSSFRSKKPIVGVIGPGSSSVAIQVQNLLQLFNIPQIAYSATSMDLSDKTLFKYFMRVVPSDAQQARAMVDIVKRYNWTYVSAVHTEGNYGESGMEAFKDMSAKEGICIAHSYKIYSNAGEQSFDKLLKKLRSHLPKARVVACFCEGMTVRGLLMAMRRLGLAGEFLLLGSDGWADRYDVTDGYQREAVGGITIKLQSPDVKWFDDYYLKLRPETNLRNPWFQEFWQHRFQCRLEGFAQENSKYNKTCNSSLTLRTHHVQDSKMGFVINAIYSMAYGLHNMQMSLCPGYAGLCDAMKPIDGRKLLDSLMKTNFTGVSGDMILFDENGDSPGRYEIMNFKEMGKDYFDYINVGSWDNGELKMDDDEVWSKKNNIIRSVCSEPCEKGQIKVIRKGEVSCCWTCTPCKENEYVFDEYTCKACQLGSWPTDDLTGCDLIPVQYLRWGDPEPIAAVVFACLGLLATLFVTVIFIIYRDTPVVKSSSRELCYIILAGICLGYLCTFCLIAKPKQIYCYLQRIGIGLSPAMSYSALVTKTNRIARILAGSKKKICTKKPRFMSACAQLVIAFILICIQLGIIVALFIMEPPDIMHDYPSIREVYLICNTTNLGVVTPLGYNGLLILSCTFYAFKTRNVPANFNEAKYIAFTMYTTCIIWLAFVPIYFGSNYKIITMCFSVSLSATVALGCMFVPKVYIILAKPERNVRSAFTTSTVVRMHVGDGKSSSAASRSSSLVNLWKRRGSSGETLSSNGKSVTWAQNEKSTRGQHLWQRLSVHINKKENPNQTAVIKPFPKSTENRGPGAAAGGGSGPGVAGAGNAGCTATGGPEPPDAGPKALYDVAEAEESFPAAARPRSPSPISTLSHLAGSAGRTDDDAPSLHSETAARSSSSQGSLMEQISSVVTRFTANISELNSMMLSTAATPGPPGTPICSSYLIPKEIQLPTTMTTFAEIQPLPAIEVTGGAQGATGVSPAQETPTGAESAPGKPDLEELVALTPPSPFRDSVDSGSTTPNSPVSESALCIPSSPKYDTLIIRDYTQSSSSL
As to the kind of experiment: Single-cell calcium imaging (Fura-2) of quisqualate-evoked calcium oscillations, with photoisomerization by 390/490 nm light. Format: cell-based. As to conditions: 3 µM quisqualate. The method, then: Cell Culture and Transient Transfection: Human embryonic kidney (HEK) tsA201 cells were maintained at 37 °C and humidified atmosphere with 5% CO2; cells were grown in Dulbecco's Modified Eagle's Medium/Nutrient Mixture F-12 Ham (DMEM/F12, 1:1) medium, supplemented with 10% Fetal Bovine Serum (FBS) and antibiotics (1% Penicillin/Streptomycin). Once at confluence, culture flasks were washed twice with PBS and harvested with 300 µl Accutase. Expression of rat mGlu5a was induced by transient transfection of the cDNA-containing plasmid with X-tremeGENE 9 DNA Transfection Reagent. For transfection, cells were seeded at a concentration of 10^6 cells per well on 6-multiwell plates with a final volume of 2ml, and immediately transfected following manufacturer's instructions (100 µl mixture of 3:1 (µl:µg) of X-tremeGENE 9 DNA TR:mGlu5a plasmid in serum-free medium, 20 minutes incubation). About 24h after transfection, HEK tsA201 cells transiently overexpressing mGlu5a were seeded onto 15 mm glass coverslips pre-treated with Poly-L-Lysine to allow cell adhesion. Seeding concentration was maintained between 2/4·10^5 cells to get preconfluent cultures at the time of experiment. Transfected cells were used for single-cell calcium imaging experiments between 48 and 72 hours after transfection.
Single-cell Calcium Imaging: At the time of experiments, glass coverslips were mounted onto the recording chamber, and cells were loaded with the high affinity, ratiometric, intracellular calcium indicator Fura-2 AM; the dye was incubated during 30 minutes at 37°C and 5% CO2, at a final concentration of 10 µM in Ca^2+-free extracellular solution (ES, -Ca^2+). We used a ratiometric calcium sensor in order to avoid bleaching artefacts. Cells were then carefully rinsed with fresh ES, three to four times, before the recording chamber was placed on an inverted fully-motorised digital microscope (iMic 2000, Till Photonics, Gräfelfing, Germany). Images were acquired at room temperature with a UV Apochromat 40x oil objective lens (Olympus, Tokio, Japan). Fura-2 AM was excited consecutively for 10 ms at two different wavelengths (340 and 380 nm) as indicated by the manufacturer (Life Technologies, Paisley, UK) by using a Polychrome V light source (Till Photonics) and a 505 nm dichroic beamsplitter (Chroma Technology, Below Falls, VT, USA); emission at 510 nm was filtered by a D535/40nm emission filter (Chroma Technology) and finally collected by a cooled CCD camera (Interline Transfer IMAGO QE, Till Photonics). The fluorescence measurements (excitation + emission recording) were carried out every 2 seconds, and each measurement takes about 10-50 ms. The 340 and 380 nm images were stored by the TILLvisION imaging software (Till Photonics); the ratio of the emission when the sample was excited at 340 nm and the emission when it was excited at 380 nm was recorded and its mean value was calculated for each cell using the same software. Higher ratios correspond to higher intracellular calcium concentrations.
Agonists and allosteric modulators addition was obtained by carefully pipetting an initial 1:30 dilution of the compound directly into the accessory pool of the recording chamber, obtaining a final dilution of 1:1000 (total DMSO concentration was always lower than 1%). Activation of the agonist was induced in HEK tsA201 mGlu5a transfected cells with the glutamate analogue Quisqualic acid (3 µM). Only evoked, sustained intracellular calcium oscillations were taken into account as consistent cell responses to the application of the agonist; different responses (such as single-peak, peak-and-plateau, etc.), as well as spontaneously oscillating cells, were discarded as unsuitable for calculating the oscillatory frequency.
Solutions and Reagents: The extracellular solution (ES) used for single-cell calcium imaging contained: 140 mM NaCl, 5.4 mM KCI, 1 mM MgCl2, 10 mM HEPES, 10 mM glucose and 2 mM CaCl2 adjusted to pH 7.4 with NaOH. […]

A short description of data set [3]: UV-VIS absorption spectrum before and after irradiation. It is filed as physicochemical. Particulars: solution in DMSO, irradiation with ultraviolet light (380 nm).

Consider one compound from EP2853565A1, “Glutamate receptor photomodulators” (Consejo Superior De Investigaciones Científicas, priority 2013, dated 2015).

On to `Cc1ccc(O)c(/N=N/c2ccccc2)n1` [SIB-1757], for which, in data set [1], the lipophilicity entry is recorded as “high” and the solubility result is given as “low”. In addition, the “effect on mGlu5 response (calcium oscillations)” value in data set [2] (HEK tsA201 cells) is on record as “clearly an antagonist of mGlu5”. For the same compound, the “light dependence of the activity on mGlu5” value in data set [2] (UV (380/390 nm) and visible (500/490 nm) light) is “not light-dependent”. Besides, the “photoswitch in the UV-VIS absorption spectrum” value in data set [3] is “did not reveal any photoswitch”.
